Where a name gives a salt, the structure may show the parent alone. Read-outs that look alike come from different tables or passages of the source.
Experiments:
[1] = molecular target: T1, D-sorbitol dehydrogenase (SLDH) (Gluconobacter thailandicus, UniProt Q8KIL1); experiment: Effects of metal ions and inhibitors on the SLDH activity; assay type: biochemical, Gluconobacter suboxydans IFO 3255; parameters: The SLDH was isolated from the membrane fraction of Gluconobacter suboxydans IFO 3255 (DSM 9715); made in house; host or cells: Gluconobacter suboxydans IFO 3255 (DSM 9715), native source (not recombinant): purified from the solubilized membrane fraction; details: for effect on SLDH activity: addition of 0.91 mM; for activity at 960 µM / activity at 1890 µM: read-out: Relative activity (%)
T1 sequence (Q8KIL1 30-740): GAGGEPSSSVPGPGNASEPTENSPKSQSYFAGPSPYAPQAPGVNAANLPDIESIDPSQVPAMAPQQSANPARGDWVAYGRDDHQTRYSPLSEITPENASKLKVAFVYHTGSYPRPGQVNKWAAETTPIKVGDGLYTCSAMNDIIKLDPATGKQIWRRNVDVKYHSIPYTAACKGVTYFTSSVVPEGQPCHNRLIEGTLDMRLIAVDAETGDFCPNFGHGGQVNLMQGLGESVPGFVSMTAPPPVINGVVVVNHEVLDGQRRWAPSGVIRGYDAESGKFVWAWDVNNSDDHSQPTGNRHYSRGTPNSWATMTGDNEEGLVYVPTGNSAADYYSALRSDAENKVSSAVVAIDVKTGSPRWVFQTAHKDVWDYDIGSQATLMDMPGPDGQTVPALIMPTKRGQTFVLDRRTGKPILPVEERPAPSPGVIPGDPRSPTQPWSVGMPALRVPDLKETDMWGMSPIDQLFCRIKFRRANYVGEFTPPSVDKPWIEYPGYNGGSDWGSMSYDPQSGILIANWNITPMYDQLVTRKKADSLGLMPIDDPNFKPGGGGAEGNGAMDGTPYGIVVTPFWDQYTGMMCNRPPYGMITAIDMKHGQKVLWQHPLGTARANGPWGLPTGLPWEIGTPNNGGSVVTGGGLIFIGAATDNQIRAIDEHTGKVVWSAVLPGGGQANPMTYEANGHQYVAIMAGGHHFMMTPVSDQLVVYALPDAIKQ

[2] = molecular target: T1, D-sorbitol dehydrogenase (SLDH); experiment: Substrate specificity of the purified D-sorbitol dehydrogenase (DCIP reduction enzyme assay); assay type: biochemical, Gluconobacter suboxydans IFO 3255; parameters: The SLDH was isolated from the membrane fraction of Gluconobacter suboxydans IFO 3255 (DSM 9715); made in house; host or cells: Gluconobacter suboxydans IFO 3255 (DSM 9715), native source (not recombinant): purified from the solubilized membrane fraction; details: for activity at 100000 µM: read-out: Relative activity
[3] = tested on: membrane-bound D-sorbitol dehydrogenase; details: Shinagawa et al. enzyme; cited from earlier work
[4] = molecular target: T1, D-sorbitol dehydrogenase (SLDH); details: conversion of D-sorbitol to L-sorbose
[5] = substrate: OC[C@@H](O)[C@@H](O)[C@H](O)[C@@H](O)CO; experiment: Effects of substrate concentration on reaction rate (Km); assay type: biochemical, Gluconobacter suboxydans IFO 3255; details: other: D-sorbitol 0.5 to 80 mM; DCIP as electron acceptor
Description: The velocity of the oxidizing reaction on varying the concentration of D-sorbitol from 0.5 to 80 mM was measured to determine the Km value for D-sorbitol. The apparent Michaelis constant was calculated to be 18 mM with DCIP as an electron acceptor for the reaction.

[6] = metal 0.91 mM, percentage of the reaction rate without metal compounds
[7] = metal 1.79 mM, percentage of the reaction rate without metal compounds
[8] = substrate solutions 100 mM, percent of the reaction rate obtained with D-sorbitol
[9] = inhibitor 0.96 mM, percentage of the reaction rate without inhibitors
[10] = inhibitor 1.89 mM, percentage of the reaction rate without inhibitors

## O.O.O.O.O=[N+]([O-])[O-].O=[N+]([O-])[O-].[Ca+2] [Ca(NO3)2.4H2 O]
[1]; [6]
  Relative activity (%): 96%
[1]; [7]
  Relative activity (%): 96%

## [Ca+2].[Cl-].[Cl-] [CaCl2]
[1]; [6]
  Relative activity (%): 96%
[1]; [7]
  Relative activity (%): 96%

## O.O.O.O.O.O.[Cl-].[Cl-].[Co+2] [CoCl2.6H2 O]
[1]; [6]
  Relative activity (%): 117%
[1]; [7]
  Relative activity (%): 108%

## O.O.O.O=[N+]([O-])[O-].O=[N+]([O-])[O-].[Cu+2] [Cu(NO3)2.3H2 O]
[1]; [6]
  Relative activity (%): 0%
[1]; [7]
  Relative activity (%): 0%

## O.O.[Cl][Cu][Cl] [CuCl2.2H2 O]
[1]; [6]
  Relative activity (%): 0%
[1]; [7]
  Relative activity (%): 0%

## O=S(=O)([O-])[O-].[Cu+2] [CuSO4]
[1]; [6]
  Relative activity (%): 0%
[1]; [7]
  Relative activity (%): 0%

## [Cu+2] [Cu^2+]
[1]
  effect on SLDH activity: strongly inhibitory

## OC[C@@H](O)[C@@H](O)[C@@H](O)CO [D-Adonitol]
[2]; [8]
  activity at 100000 µM: 66.6%

## OC[C@@H](O)C(O)[C@H](O)CO [D-Arabitol]
[2]; substrate solutions 100 mM
  oxidation by SLDH: highly oxidized
[2]; [8]
  activity at 100000 µM: 175%
[3]
  oxidation by the enzyme: did not oxidize

## O=C(CO)[C@@H](O)[C@H](O)[C@H](O)CO [D-Fructose]
[2]; [8]
  activity at 100000 µM: 0%

## OC[C@H]1OC(O)[C@H](O)[C@@H](O)[C@@H]1O (stereo partly drawn) [D-Glucose]
[2]
  activity at 100000 µM: 0%

## OC[C@@H](O)[C@@H](O)[C@H](O)[C@H](O)CO [D-Mannitol]
[2]
  activity at 100000 µM: 49.9%
[3]
  reaction rate relative to D-sorbitol: 5%

## OC[C@@H](O)[C@@H](O)[C@H](O)[C@@H](O)CO [D-Sorbitol]
[2]
  activity at 100000 µM: 100%
[2]; substrate solutions 100 mM
  oxidation by SLDH: highly oxidized

## OC[C@@H](O)[C@H](O)[C@@H](O)CO [D-Xylitol]
[2]; [8]
  activity at 100000 µM: 0%

## O=C(O)CN(CCN(CC(=O)O)CC(=O)O)CC(=O)O [EDTA]
[1]
  activity at 960 µM: 96.7%
  activity at 1890 µM: 100%

## CCO [Ethanol]
[2]
  activity at 100000 µM: 0%

## O=S(=O)([O-])[O-].O=S(=O)([O-])[O-].O=S(=O)([O-])[O-].[Fe+3].[Fe+3] [Fe2 (SO4)3.xH2 O]
[1]; [6]
  Relative activity (%): 0%
[1]; [7]
  Relative activity (%): 0%

## [Fe+3] [Fe^3+]
[1]
  effect on SLDH activity: strongly inhibitory

## OCC(O)CO [Glycerol]
[2]; substrate solutions 100 mM
  oxidation by SLDH: highly oxidized
[2]; [8]
  activity at 100000 µM: 117%

## O=C(CO)[C@@H](O)[C@H](O)[C@@H](O)CO [L-Sorbose]
[2]; [8]
  activity at 100000 µM: 0%

## CO [Methanol]
[2]
  activity at 100000 µM: 0%

## O.O.O.O.O.O.[Cl-].[Cl-].[Mg+2] [MgCl2.6H2 O]
[1]; [6]
  Relative activity (%): 88%
[1]; [7]
  Relative activity (%): 92%

## O.O.O.O.[Cl][Mn][Cl] [MnCl2.4H2 O]
[1]; [6]
  Relative activity (%): 80%
[1]; [7]
  Relative activity (%): 88%

## O=C(O)CI [Monoiodoacetate]
[1]
  inhibitory by: 75%
  activity at 960 µM: 75%
  activity at 1890 µM: 25%

## CCN1C(=O)C=CC1=O [N-Ethylmaleimide]
[1]; [9]
  activity at 960 µM: 117%
[1]
  activity at 1890 µM: 100%

## O.O.O.O.O.O.O.O=[As]([O-])([O-])O.[Na+].[Na+] [Na2 HAsO4.7H2 O]
[1]; [9]
  Relative activity (%): 116.7%
[1]; [10]
  Relative activity (%): 120.0%

## O.O.[Na+].[Na+].[O]=[Mo](=[O])([O-])[O-] [Na2 MoO4.2H2 O]
[1]; [6]
  Relative activity (%): 68%
[1]; [7]
  Relative activity (%): 96%

## [N-]=[N+]=[N-].[Na+] [NaN3]
[1]; [9]
  Relative activity (%): 91.7%
[1]; [10]
  Relative activity (%): 112.5%

## O.O.O.O.O.O.O=S(=O)([O-])[O-].[Ni+2] [NiSO4.6H2 O]
[1]; [6]
  Relative activity (%): 88%
[1]; [7]
  Relative activity (%): 108%

## C=C[C@H]1CN2CC[C@H]1C[C@H]2[C@H](O)c1ccnc2ccc(OC)cc12 [Quinine-HCl, quinine hydrochloride]
[1]; [9]
  activity at 960 µM: 79.2%
[1]; [10]
  activity at 1890 µM: 75%
[1]; inhibitors (Table 7)
  inhibitory by: 25%

## [F-].[Na+] [Sodium fluoride]
[1]; [9]
  Relative activity (%): 100%
[1]; [10]
  Relative activity (%): 100%

## O=C(O)CF [Sodium fluoroacetate]
[1]
  activity at 960 µM: 104%
  activity at 1890 µM: 108%

## OC[C@H]1O[C@@](CO)(O[C@H]2O[C@H](CO)[C@@H](O)[C@H](O)[C@H]2O)[C@@H](O)[C@@H]1O [Sucrose]
[2]; [8]
  activity at 100000 µM: 0%

## [Cl][Ti]([Cl])([Cl])[Cl] [TiCl4]
[1]; [6]
  Relative activity (%): 96%
[1]; [7]
  Relative activity (%): 88%

## [Cl-].[Cl-].[Zn+2] [ZnCl2]
[1]; [6]
  Relative activity (%): 56%
[1]; [7]
  Relative activity (%): 32%

## O.O.O.O.O.O.O.O=S(=O)([O-])[O-].[Zn+2] [ZnSO4.7H2 O]
[1]; [6]
  Relative activity (%): 44%
[1]; [7]
  Relative activity (%): 40%

## OC[C@@H](O)[C@@H](O)CO [meso-Erythritol]
[2]; substrate solutions 100 mM
  oxidation by SLDH: highly oxidized
[2]; [8]
  activity at 100000 µM: 172%
[3]
  oxidation by the enzyme: did not oxidize

## O=O [oxygen]
[4]
  use as electron acceptor: does not utilize oxygen as an electron acceptor

## MnSO4.4~6H2 O
[1]; [6]
  Relative activity (%): 88%
[1]; [7]
  Relative activity (%): 88%

B1: D-sorbitol dehydrogenase (SLDH) (Gluconobacter thailandicus) (protein)
chain: T1 sequence (Q8KIL1 30-740)
notes: The SLDH was isolated from the membrane fraction of Gluconobacter suboxydans IFO 3255 (DSM 9715); made in house; host or cells: Gluconobacter suboxydans IFO 3255 (DSM 9715), native source (not recombinant): purified from the solubilized membrane fraction
[5]
  Km: 18 mM
